Assay results taken from PubChem BioAssay (NCI).
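48-hour exposure; five concentrations; linearly interpolated endpoints. TGI marks complete inhibition of growth.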

Experiments:
Assay in all cases: growth of human tumour cells (NCI), 48 h
[1] = test system: MCF7 breast
[2] = test system: SK-MEL-2 melanoma
[3] = test system: EKVX NSCLC
[4] = test system: T-47D breast
[5] = test system: SF-295 CNS
[6] = test system: ACHN renal
[7] = test system: NCI/ADR-RES ovarian
[8] = test system: SR leukemia
[9] = test system: M14 melanoma
[10] = test system: SW-620 colon
[11] = test system: CCRF-CEM leukemia
[12] = test system: SK-OV-3 ovarian

SMILES | TGI [1] | TGI [2] | TGI [3] | TGI [4] | TGI [5] | TGI [6] | TGI [7] | TGI [8] | TGI [9] | TGI [10] | TGI [11] | TGI [12]
Nc1ncnc2c1cnn2COCC(O)CO (stereo unspecified) | > 100 µM | > 100 µM | > 100 µM | > 100 µM | > 100 µM | > 100 µM | > 100 µM | > 100 µM | > 100 µM | > 100 µM | > 100 µM | > 100 µM
COC(=O)C1SC[C@H]2C(=O)N(c3ccccc3)C(=O)N12 (stereo partly specified) | > 100 µM | > 100 µM | > 100 µM | > 100 µM | > 100 µM | > 100 µM | > 100 µM | > 100 µM | > 100 µM | > 100 µM | > 100 µM | > 100 µM
COc1ncc(C#CC(=O)c2ccccc2)c(OC)n1 | 1.96 µM | 13.4 µM | 9.16 µM | 15.8 µM | 36 µM | 3.7 µM | 7.73 µM | 4.68 µM | 10.5 µM | 4.84 µM | 2.07 µM | 42.1 µM
